pIC50: −log10 of the molar value.
Tests used:
Type in all cases: cell-based
[1] = Cytotoxicity against HepG2; conditions: human, HepG2 cells, 26.0 uM highest concentration measured
[2] = Cytotoxicity against HeLa; conditions: human, HeLa cells, 26.0 uM highest concentration measured
[3] = tested on: carbon-starved M. tuberculosis H37Rv; assay: Non-replicating IC90 determination by luciferase (carbon-starved cells); conditions: luciferase; for IC90 / IC99: Mycobacterium tuberculosis, H37RV; for IC90: non-replicating carbon-starved Mtb, three independent experiments in triplicate, read-out: TB Growth Inhibition Activity, IC90 Non-replicating_luciferase; for IC99: 120 h, read-out: Against carbon starved non-replicating Mtb IC99 (uM, luciferase); for IC99 / Against carbon starved non-replicating Mtb IC99 (uM, luciferase): None = inhibition did not reach 99%
[4] = Cytotoxicity against Hek 293; conditions: human, HEK293 cells, 26.0 uM highest concentration measured
[5] = tested on: replicating M. tuberculosis H37Rv; assay: microbe, parasite or virus in culture; conditions: Mycobacterium tuberculosis, H37RV, None = inhibition did not reach 90%, read-out: Against Replicating Mtb IC90 (uM, GFP)

Compound	pIC50 [1]	pIC50 [2]	IC90 [3]	pIC50 [4]	IC99 [3]	IC90 [5]	Against carbon starved non-replicating Mtb IC99 (uM, luciferase) [3]
COc1ccccc1CSc1nnc(-c2ccccc2)o1	< 4.59	< 4.59	2 µM	< 4.59			
CC1(O)CN(CCSc2nnc(-c3ccccc3)o2)C1	< 4.59	< 4.59	125 µM	< 4.59			
FC(F)(F)c1cccc(-c2nnc(SCc3ccccc3)o2)c1	< 4.59	< 4.59	31 µM	< 4.59			
CS(=O)(=O)c1cccc(-c2nnc(SCc3ccccc3)o2)c1	< 4.59	< 4.59	125 µM	< 4.59			
N#Cc1ccccc1CSc1nnc(-c2ccccc2)o1	< 4.59	< 4.59	4 µM	< 4.59			
c1ccc(CSc2nnc(-c3cnco3)o2)cc1	< 4.59	< 4.59	8 µM	< 4.59			
CS(=O)(=O)c1ccc(CSc2nnc(-c3ccccc3)o2)cc1	< 4.59	< 4.59	31 µM	< 4.59			
Clc1cccc(-c2nnc(SCc3ccccc3)o2)c1	< 4.59	< 4.59	8 µM	< 4.59			
COc1ccc(CSc2nnc(-c3ccccc3)o2)cc1	< 4.59	< 4.59	0.25 µM	< 4.59			
c1ccc(CSc2nnc(-c3ccncc3)o2)cc1	< 4.59	< 4.59	31 µM	< 4.59			
c1ccc(COc2nnc(-c3ccccc3)o2)cc1	< 4.59	< 4.59	8 µM	< 4.59			
FC(F)(F)CNCCSc1nnc(-c2ccccc2)o1	< 4.59	< 4.59	250 µM	< 4.59			
CS(=O)(=O)c1ccc(-c2nnc(SCc3ccccc3)o2)cc1	< 4.59	< 4.59		< 4.59			
c1ccc(CNc2nnc(-c3ccccc3)o2)cc1	< 4.59	< 4.59	4 µM	< 4.59			
FC(F)(F)Oc1ccc(CSc2nnc(-c3ccccc3)o2)cc1	< 4.59	< 4.59	1 µM	< 4.59			
c1ccc(CSc2ncc(-c3ccccc3)o2)cc1	< 4.59	< 4.59	62 µM	< 4.59			
COc1ccc(-c2nnc(SCc3ccccc3)o2)cc1	< 4.59	< 4.59	31 µM	< 4.59			
N#Cc1cccc(CSc2nnc(-c3ccccc3)o2)c1	< 4.59	< 4.59	8 µM	< 4.59			
c1ccc(CSc2nnc(-c3ccc(-c4ccccc4)cc3)o2)cc1	< 4.59	< 4.59		< 4.59			
Clc1ccc(CSc2nnc(-c3ccccc3)o2)cc1	< 4.59	< 4.59	1 µM	< 4.59			
COC(=O)CCCOc1ccc(CSc2nnc(-c3ccc(Cl)cc3)o2)nc1 [drawing 233]					16 µM	31 µM	
COc1ccc(CSc2nnc(-c3ccc(Cl)cc3)o2)nc1 [drawing 228]					8 µM	31 µM	
c1ccc(-c2nnc(NCc3ccccn3)o2)cc1						> 500 µM	None
Fc1ccc(CSc2nnc(-c3ccncc3)o2)cc1						> 500 µM	None
Clc1ccc(-c2nnc(SCc3ccccn3)o2)cc1					16 µM	62 µM	

Reference: patent US10301294B2, “Compounds for the treatment of tuberculosis” (priority 2013, dated 2019)
